# Test results: publication PMC12027702, “Evaluation of Tyrosinase Inhibitory Activity of Carbathioamidopyrazoles and Their Potential Application in Cosmetic Products and Melanoma Treatment” (International Journal of Molecular Sciences, 2025)
# Molecular target: T1, mushroom tyrosinase
# T1 construct: gene PPO3; PDB 2Y9X is only the docking model
# Assay: Dixon plot, L-DOPA oxidation, absorbance at […] nm
# Format: biochemical
# Conditions: L-DOPA substrate, phosphate buffer pH 6.88, 20 °C, 20 min preincubation, 10% DMSO; competitive
row,SMILES,Ki
1,"NC(=S)n1nc(-c2ccccc2)cc1O [compound 3, 1-[amino(thioxo)methyl]-5-hydroxy-3-phenyl-1Hpyrazole]",118 µM
2,"CCc1cc(CC)n(C(N)=S)n1 [compound 2, 1-[amino(thioxo)methyl]-3,5-diethyl-1Hpyrazole]",64.4 µM
3,"Cc1cc(C)n(C(N)=S)n1 [compound 1, 1-[amino(thioxo)methyl]-3,5-dimethyl-1Hpyrazole]",14.6 µM
4,"Cc1cc(O)n(C(N)=S)n1 [compound 4, 1-[amino(thioxo)methyl]-5-hydroxy-3-methyl-1H-pyrazole]",7.88 µM
